Assay results from patent US20230000813A1, “COMPOUND FOR THE TREATMENT OF BOVINE OR SWINE RESPIRATORY DISEASE” (Intervet Inc., priority 2016, published 2023).
Values after ≈ are worked out from the molar mass of the structure shown.

What was measured:
Experiment in all cases: MIC, broth-microdilution (CLSI VET01-A4)
Format in all cases: cell-based
[1] = tested on: Mannheimia haemolytica MH 13093 (XB0472-6014.1, BRD field isolate)
Procedure: (§1) The Minimum inhibitory concentrations (MIC) of compounds according to the invention for a number of veterinary bacterial pathogens were determined by the broth-microdilution method according to CLSI document VET01-A4.
(§2) Microdilution trays containing a doubling dilution series of the test compound were used for the tests. The MIC results were interpreted according to the CLSI documents VET01-S3. The lowest concentration of compound at which no visible growth (i.e. no turbidity) detected by the unaided eye was recorded as the MIC.

[2] = tested on: Mannheimia haemolytica MH 12587 (1071, BRD field isolate, macrolide-resistance: erm+, E+); settings: Mannheimia haemolytica MH 12587, macrolide-resistant
Procedure: as §1, §2
(§3) The Minimum inhibitory concentrations (MIC) of compounds according to the invention were determined by the broth-microdilution method according to CLSI document VET01-A4.
(§4) Microdilution trays containing a doubling dilution series of the test compound were used for the tests.
(§5) The MIC results were interpreted according to the CLSI documents VET01-S3. The lowest concentration of compound at which no visible growth (i.e. no turbidity) detected by the unaided eye was recorded as the MIC.

[3] = tested on: Pasteurella multocida PM 6267 (P 2225 (L386), reference strain, mouse infection strain); settings: Pasteurella multocida PM 6267
Procedure: as §1, §2, §3, §4, §5

[4] = tested on: Mannheimia haemolytica MH 6357 (M7/2, reference strain, cattle infection strain); settings: Mannheimia haemolytica MH 6357; for MIC: read-out: MIC MH 6357
Procedure: as §1, §2, §3, §4, §5

[5] = tested on: Mannheimia haemolytica MH 6374 (ATCC 33396, reference strain); settings: Mannheimia haemolytica MH 6374; for MIC: read-out: MIC MH 6374
Procedure: as §1, §2, §3, §4, §5

[6] = tested on: Pasteurella multocida PM 6391 (ATCC 43137, reference strain); settings: Pasteurella multocida PM 6391
Procedure: as §1, §2, §3, §4, §5

[7] = tested on: Pasteurella multocida PM 12080 (IV102277-0093, BRD field isolate); settings: Pasteurella multocida PM 12080
Procedure: as §1, §2, §3, §4, §5

[8] = tested on: Mannheimia haemolytica MH 10720 (154, BRD field isolate); settings: Mannheimia haemolytica MH 10720
Procedure: as §1, §2, §3, §4, §5

| Structure (SMILES) | MIC [1] [µM] | MIC MH 12587 [2] [µM] | MIC PM 6267 [3] | MIC [4] [µM] | MIC [5] [µM] | MIC PM 6391 [6] | MIC PM 12080 [7] | MIC MH 10720 [8] | MIC MH 6357 [4] | MIC MH 6374 [5] | MIC ([8]; read-out: MIC MH 10720) [µM] |
| --- | --- | --- | --- | --- | --- | --- | --- | --- | --- | --- | --- |
| C[C@@H](O)[C@H](NC(=O)c1ccc(C#Cc2ccc(CNCc3ccc(F)cc3)cc2)cc1)C(=O)NO [Compound 475] | 0.8 (≈ 0.38 µg/mL) | 0.8 (≈ 0.38 µg/mL) | <=0.1 μM | 0.2 (≈ 0.0951 µg/mL) | 0.4 (≈ 0.19 µg/mL) | <=0.1 μM | <=0.1 μM |  |  |  |  |
| Cc1cnc(CNCc2ccc(C#Cc3ccc(C(=O)N[C@H](C(=O)NO)[C@@H](C)O)cc3)s2)o1 [Compound 484] | 0.8 (≈ 0.375 µg/mL) | 0.8 (≈ 0.375 µg/mL) | <=0.1 μM | 0.2 (≈ 0.0937 µg/mL) | 0.4 (≈ 0.187 µg/mL) | <=0.1 μM | <=0.1 μM | <=0.1 μM |  |  |  |
| Cc1cnc(CNCc2ccc(C#Cc3ccc(C(=O)N[C@H](C(=O)NO)[C@@H](C)O)cc3)cc2)o1 [Compound 474] | 0.8 (≈ 0.37 µg/mL) | 0.8 (≈ 0.37 µg/mL) | <=0.1 μM | 0.2 (≈ 0.0925 µg/mL) | 0.4 (≈ 0.185 µg/mL) | <=0.1 μM | <=0.1 μM | <=0.1 μM |  |  |  |
| C[C@@H](O)[C@H](NC(=O)c1ccc(C#Cc2ccc(CNCC(F)(F)F)nc2)cc1)C(=O)NO [Compound 487] | 1.6 (≈ 0.721 µg/mL) | 1.6 (≈ 0.721 µg/mL) | <=0.1 μM | 0.4 (≈ 0.18 µg/mL) | 1.6 (≈ 0.721 µg/mL) | <=0.1 μM | <=0.1 μM | <=0.1 μM |  |  |  |
| C[C@@H](O)[C@H](NC(=O)c1ccc(C#Cc2ccc(CN3CC=CC3)cc2)cc1)C(=O)NO [Compound 468] | 0.4 (≈ 0.168 µg/mL) | 0.4 (≈ 0.168 µg/mL) | <=0.1 μM |  |  | <=0.1 μM | <=0.1 μM | <=0.1 μM | <=0.1 μM | <=0.1 μM |  |
| C#CCNCc1ccc(C#Cc2ccc(C(=O)N[C@H](C(=O)NO)[C@@H](C)O)cc2)cn1 [Compound 490] | 1.6 (≈ 0.65 µg/mL) | 1.6 (≈ 0.65 µg/mL) |  | 0.4 (≈ 0.163 µg/mL) | 0.8 (≈ 0.325 µg/mL) | <=0.1 μM | <=0.1 μM | <=0.1 μM |  |  |  |
| CC(O)C(NC(=O)c1ccc(C#CC#CC=CCNC2CC2)cc1)C(=O)NO (stereo not drawn) [Compound 444] | 1.6 (≈ 0.61 µg/mL) | 1.6 (≈ 0.61 µg/mL) | <=0.1 μM | 0.4 (≈ 0.153 µg/mL) | 0.8 (≈ 0.305 µg/mL) | <=0.1 μM | <=0.1 μM | <=0.1 μM |  |  |  |
| CC(O)C(NC(=O)c1ccc(C#CC#CC=CCNCc2cccs2)cc1)C(=O)NO (stereo not drawn) [Compound 464] | 0.8 (≈ 0.35 µg/mL) | 0.8 (≈ 0.35 µg/mL) | <=0.1 μM | 0.4 (≈ 0.175 µg/mL) | 0.2 (≈ 0.0875 µg/mL) | <=0.1 μM | <=0.1 μM | <=0.1 μM |  |  |  |
| CC(O)C(NC(=O)c1ccc(C#CC#CC=CCN(C)Cc2ccccc2)cc1)C(=O)NO (stereo not drawn) [Compound 452] | 0.8 (≈ 0.356 µg/mL) | 0.8 (≈ 0.356 µg/mL) | <=0.1 μM | 0.2 (≈ 0.0891 µg/mL) | 0.4 (≈ 0.178 µg/mL) | <=0.1 μM | <=0.1 μM |  |  |  |  |
| Cc1cnc(CNCc2ccc(C#Cc3ccc(C(=O)N[C@H](C(=O)NO)[C@@H](C)O)cc3)cn2)o1 [Compound 495] | 1.6 (≈ 0.742 µg/mL) | 1.6 (≈ 0.742 µg/mL) | <=0.1 μM | 0.4 (≈ 0.185 µg/mL) | 1.6 (≈ 0.742 µg/mL) | <=0.1 μM | <=0.1 μM | <=0.1 μM |  |  |  |
| CC(O)C(NC(=O)c1ccc(C#CC#CC=CCNCc2ccnc(Cl)c2)cc1)C(=O)NO (stereo not drawn) [Compound 461] | 1.6 (≈ 0.747 µg/mL) | 1.6 (≈ 0.747 µg/mL) | <=0.1 μM | 0.4 (≈ 0.187 µg/mL) | 0.4 (≈ 0.187 µg/mL) | <=0.1 μM | <=0.1 μM | <=0.1 μM |  |  |  |
| C[C@@H](O)[C@H](NC(=O)c1ccc(C#Cc2ccc(CNCc3ccc(F)cc3)s2)cc1)C(=O)NO [Compound 485] | 0.2 (≈ 0.0963 µg/mL) | 0.4 (≈ 0.193 µg/mL) | <=0.1 μM |  |  | <=0.1 μM | <=0.1 μM | <=0.1 μM | <=0.1 μM | <=0.1 μM |  |
| C[C@@H](O)[C@H](NC(=O)c1ccc(C#Cc2ccc(CNCC(F)(F)F)s2)cc1)C(=O)NO [Compound 477] | 0.4 (≈ 0.182 µg/mL) | 0.4 (≈ 0.182 µg/mL) | <=0.1 μM |  | 0.2 (≈ 0.0911 µg/mL) | <=0.1 μM | <=0.1 μM | <=0.1 μM | <=0.1 μM |  |  |
| C=C(C)CNCc1ccc(C#Cc2ccc(C(=O)N[C@H](C(=O)NO)[C@@H](C)O)cc2)cn1 [Compound 486] | 1.6 (≈ 0.676 µg/mL) | 1.6 (≈ 0.676 µg/mL) | <=0.1 μM | 0.8 (≈ 0.338 µg/mL) | 1.6 (≈ 0.676 µg/mL) | <=0.1 μM | <=0.1 μM |  |  |  | 0.2 (≈ 0.0845 µg/mL) |
| CC(O)C(NC(=O)c1ccc(C#CC#CC=CCN2CCC(c3ccccc3)CC2)cc1)C(=O)NO (stereo not drawn) [Compound 448] | 1.6 (≈ 0.777 µg/mL) | 1.6 (≈ 0.777 µg/mL) | <=0.1 μM | 0.8 (≈ 0.388 µg/mL) | 0.4 (≈ 0.194 µg/mL) | <=0.1 μM | <=0.1 μM | <=0.1 μM |  |  |  |
| CSCCNCc1ccc(C#Cc2ccc(C(=O)N[C@H](C(=O)NO)[C@@H](C)O)cc2)cc1 [Compound 472] | 1.6 (≈ 0.706 µg/mL) | 1.6 (≈ 0.706 µg/mL) | <=0.1 μM | 0.4 (≈ 0.177 µg/mL) | 0.8 (≈ 0.353 µg/mL) | <=0.1 μM | <=0.1 μM | <=0.1 μM |  |  |  |
| C#CCNCc1ccc(C#Cc2ccc(C(=O)N[C@H](C(=O)NO)[C@@H](C)O)cc2)cc1 [C. 469] | 0.4 (≈ 0.162 µg/mL) | 0.4 (≈ 0.162 µg/mL) | <=0.1 μM | 0.2 (≈ 0.0811 µg/mL) |  | <=0.1 μM | <=0.1 μM | <=0.1 μM |  | <=0.1 μM |  |
| CSCCNCc1ccc(C#Cc2ccc(C(=O)N[C@H](C(=O)NO)[C@@H](C)O)cc2)s1 [Compound 482] | 0.8 (≈ 0.358 µg/mL) | 0.8 (≈ 0.358 µg/mL) | <=0.1 μM | 0.2 (≈ 0.0895 µg/mL) | 0.4 (≈ 0.179 µg/mL) | <=0.1 μM | <=0.1 μM | <=0.1 μM |  |  |  |
| CC(O)C(NC(=O)c1ccc(C#CC#CC=CCNCc2cccnc2)cc1)C(=O)NO (stereo not drawn) [Compound 460] | 1.6 (≈ 0.692 µg/mL) | 1.6 (≈ 0.692 µg/mL) | <=0.1 μM | 0.8 (≈ 0.346 µg/mL) | 0.8 (≈ 0.346 µg/mL) | <=0.1 μM | <=0.1 μM |  |  |  |  |
| C=C(C)CNCc1ccc(C#Cc2ccc(C(=O)N[C@H](C(=O)NO)[C@@H](C)O)cc2)s1 [Compound 476] | 0.4 (≈ 0.171 µg/mL) | 0.8 (≈ 0.342 µg/mL) | <=0.1 μM | 0.2 (≈ 0.0855 µg/mL) |  | <=0.1 μM | <=0.1 μM | <=0.1 μM |  | <=0.1 μM |  |
